# Assay results as given in ChEMBL document CHEMBL1671659, “In vitro and in vivo properties of dihydrophthalazine antifolates, a novel family of antibacterial drugs” (Antimicrob Agents Chemother, 2009).
# Active and inactive are the calls of the source. The calls are words filed in the database; no cut-off is given here.
# What was measured:
# [1] = test system: Staphylococcus aureus; assay: Antibacterial activity against methicillin, vancomycin, trimethoprim-sensitive Staphylococcus aureus ATCC 29213 harboring dfrB gene; type: functional
# [2] = molecular target: Dihydrofolate reductase (Staphylococcus aureus, UniProt P0A017, F99Y); assay: Inhibition of trimethoprim-resistant Staphylococcus aureus DfrB type dihydrofolate reductase F98Y mutant
# [3] = test system: Staphylococcus aureus; assay: Antibacterial activity against vancomycin, trimethoprim-sensitive and methicillin-resistant Staphylococcus aureus ATCC 43300 harboring dfrB gene; type: functional
# [4] = test system: Staphylococcus epidermidis; assay: Antibacterial activity against methicillin, vancomycin, trimethoprim-sensitive Staphylococcus epidermidis ATCC 14990 harboring dfrC gene; type: functional
# [5] = test system: Staphylococcus aureus; assay: Antibacterial activity against vancomycin, trimethoprim, methicillin-resistant Staphylococcus aureus VRS1 harboring dfrA and dfrB genes; type: functional
# [6] = Inhibition of trimethoprim-sensitive Staphylococcus aureus DfrB type dihydrofolate reductase
# [7] = Inhibition of trimethoprim-resistant Staphylococcus aureus Type S1 dihydrofolate reductase
# [8] = test system: Staphylococcus epidermidis; assay: Antibacterial activity against methicillin, vancomycin-sensitive and trimethoprim-resistant Staphylococcus epidermidis BAS000635 harboring dfrC and dfrA genes; type: functional
# [9] = test system: Enterococcus faecium; assay: Antibacterial activity against Enterococcus faecium in presence of 250 ug/ml thymidine; type: functional
# [10] = test system: Streptococcus pneumoniae; assay: Antibacterial activity against Streptococcus pneumoniae
# [11] = test system: Staphylococcus aureus; assay: Antibacterial activity against trimethoprim-sensitive Staphylococcus aureus ATCC 29213 infected in NMRI mouse model of septicemia assessed as complete protection from infections at 3.1 mg/kg, iv; type: functional, organism-based; parameters: dose 3.1 mg/kg
# [12] = test system: Enterococcus faecalis; assay: Antibacterial activity against vancomycin-sensitive dfrE, dfrF-positive and folA-negative Enterococcus faecalis; type: functional
# [13] = test system: Enterococcus faecalis; assay: Antibacterial activity against Enterococcus faecalis in presence of 50 ug/ml thymidine; type: functional
# [14] = test system: Staphylococcus epidermidis; assay: Antibacterial activity against methicillin-sensitive dfrA, dfrD-negative Staphylococcus epidermidis harboring F98Y mutation in dfrC gene; type: functional
# [15] = test system: Enterococcus faecium; assay: Antibacterial activity against Enterococcus faecium; type: functional
# [16] = test system: Staphylococcus epidermidis; assay: Antibacterial activity against methicillin-resistant dfrC, dfrA-positive and dfrA within SCCmec-N1, dfrD-negative Staphylococcus epidermidis; type: functional
# [17] = test system: Mus musculus; assay: Toxicity in po dosed NMRI mouse; type: organism-based; details: in vivo
# [18] = test system: Mus musculus; assay: Hepatotoxicity in NMRI mouse assessed as increase in liver weight at 400 mg/kg administered through oral gavage for 10 days; type: toxicity, organism-based; parameters: dose 400 mg/kg, route oral; details: in vivo, 240 h
# [19] = test system: Mycobacterium avium; assay: Antibacterial activity against Mycobacterium avium assessed as inhibition of bacterial growth at <=4 ug/ml; type: functional; parameters: scale not given: the % may be the effect or the level left
# [20] = AUC (0 to t) in NMRI mouse blood at 25 mg/kg administered through oral gavage after 7 hrs; type: ADME, organism-based; parameters: time < 7 hr, dose 25 mg/kg, route oral
# [21] = test system: Staphylococcus aureus; assay: Antibacterial activity against methicillin-resistant dfrB, dfrG-positive and dfrA-negative Staphylococcus aureus; type: functional
# [22] = Cmax in NMRI mouse blood at 25 mg/kg administered through oral gavage measured after 7 hrs; type: ADME, organism-based; parameters: dose 25 mg/kg, route oral
# [23] = test system: Staphylococcus aureus; assay: Antibacterial activity against trimethoprim-sensitive Staphylococcus aureus ATCC 29213; type: functional
# [24] = test system: Mus musculus; assay: Hepatotoxicity in NMRI mouse assessed as increase in mitosis at 400 mg/kg administered through oral gavage for 10 days; type: toxicity, organism-based; parameters: dose 400 mg/kg, route oral; details: in vivo, 240 h
# [25] = test system: Staphylococcus aureus; assay: Antibacterial activity against trimethoprim-sensitive Staphylococcus aureus ATCC 29213 infected in NMRI mouse model of septicemia assessed as succumbed to infections at 1.6 mg/kg, iv; type: functional, organism-based; parameters: dose 1.6 mg/kg
# [26] = test system: HeLa; assay: Cytotoxicity against human HeLa cells; type: cell-based
# [27] = test system: Streptococcus pneumoniae; assay: Antibacterial activity against Streptococcus pneumoniae in presence of 250 ug/ml thymidine; type: functional
# [28] = test system: Mus musculus; assay: Hepatotoxicity in NMRI mouse assessed as increase in mitosis at 400 mg/kg administered through oral gavage for 5 days; type: toxicity, organism-based; parameters: dose 400 mg/kg, route oral; details: in vivo, 120 h
# [29] = test system: Enterococcus faecium; assay: Antibacterial activity against Enterococcus faecium in presence of 50 ug/ml thymidine; type: functional
# [30] = test system: Staphylococcus aureus; assay: Antibacterial activity against methicillin-resistant dfrA within SCCmec-N1, dfrA and dfrG -negative Staphylococcus aureus harboring F98Y mutation in dfrB gene; type: functional
# [31] = test system: Haemophilus influenzae; assay: Antibacterial activity against Haemophilus influenzae in presence of 250 ug/ml thymidine; type: functional
# [32] = test system: Haemophilus influenzae; assay: Antibacterial activity against Haemophilus influenzae; type: functional
# [33] = test system: Staphylococcus epidermidis; assay: Antibacterial activity against methicillin-sensitive dfrC, dfrA-positive and dfrD-negative Staphylococcus epidermidis; type: functional
# [34] = test system: Mus musculus; assay: Hepatotoxicity in NMRI mouse assessed as inflammatory infiltrates at 400 mg/kg administered through oral gavage for 10 days; type: toxicity, organism-based; parameters: dose 400 mg/kg, route oral; details: in vivo, 240 h
# [35] = test system: Streptococcus pneumoniae; assay: Antibacterial activity against Streptococcus pneumoniae in presence of 50 ug/ml thymidine; type: functional
# [36] = test system: Staphylococcus aureus; assay: Antibacterial activity against trimethoprim-sensitive Staphylococcus aureus ATCC 29213 infected in NMRI mouse model of septicemia; type: functional
# [37] = test system: Staphylococcus epidermidis; assay: Antibacterial activity against methicillin-sensitive dfrA-positive and dfrD-negative Staphylococcus epidermidis harboring F98Y mutation in dfrC gene; type: functional
# [38] = test system: Enterococcus faecalis; assay: Antibacterial activity against vancomycin-sensitive folA, dfrF-negative Enterococcus faecalis harboring A5T, K88N, F102Y mutation in dfrE gene; type: functional
# [39] = test system: Mus musculus; assay: Hepatotoxicity in NMRI mouse assessed as inflammatory infiltrates at 400 mg/kg administered through oral gavage for 5 days; type: toxicity, organism-based; parameters: dose 400 mg/kg, route oral; details: in vivo, 120 h
# [40] = test system: Staphylococcus aureus; assay: Antibacterial activity against trimethoprim-resistant Staphylococcus aureus BAS003908; type: functional
# [41] = test system: Mus musculus; assay: Hepatotoxicity in NMRI mouse assessed as single-cell necrosis at 400 mg/kg administered through oral gavage for 5 days; type: toxicity, organism-based; parameters: dose 400 mg/kg, route oral; details: in vivo, 120 h
# [42] = test system: Mus musculus; assay: Hepatotoxicity in NMRI mouse assessed as single-cell necrosis at 400 mg/kg administered through oral gavage for 10 days; type: toxicity, organism-based; parameters: dose 400 mg/kg, route oral; details: in vivo, 240 h
# [43] = test system: Staphylococcus epidermidis; assay: Antibacterial activity against methicillin-sensitive dfrC-positive and dfrA, dfrD-negative Staphylococcus epidermidis; type: functional
# [44] = test system: Staphylococcus aureus; assay: Antibacterial activity against methicillin-sensitive dfrB-positive abd dfrA, dfrG-negative Staphylococcus aureus; type: functional
# [45] = test system: Enterococcus faecium; assay: Antibacterial activity against vancomycin-resistant dfrE, dfrF-negative and folA-positive Enterococcus faecium; type: functional
# [46] = Tmax in NMRI mouse blood at 25 mg/kg administered through oral gavage measured after 7 hrs; type: ADME, organism-based; parameters: dose 25 mg/kg, route oral
# [47] = test system: Enterococcus faecalis; assay: Antibacterial activity against Enterococcus faecalis in presence of 250 ug/ml thymidine; type: functional
# [48] = test system: Enterococcus faecalis; assay: Antibacterial activity against Enterococcus faecalis; type: functional
# [49] = test system: Enterococcus faecium; assay: Antibacterial activity against vancomycin-sensitive dfrE, dfrF-negative and folA-positive Enterococcus faecium; type: functional
# [50] = Oral bioavailability in NMRI mouse; type: ADME, organism-based; details: in vivo
# [51] = test system: Staphylococcus aureus; assay: Antibacterial activity against trimethoprim-resistant Staphylococcus aureus BAS003908 infected in NMRI mouse model of septicemia; type: functional
# [52] = test system: Mus musculus; assay: Hepatotoxicity in NMRI mouse assessed as increase in liver weight at 400 mg/kg administered through oral gavage for 5 days; type: toxicity, organism-based; parameters: dose 400 mg/kg, route oral; details: in vivo, 120 h
# [53] = test system: Staphylococcus aureus; assay: Antibacterial activity against methicillin-resistant dfrB, dfrA-positive and dfrA within SCCmec-N1, dfrG-negative Staphylococcus aureus; type: functional
# [54] = test system: Haemophilus influenzae; assay: Antibacterial activity against Haemophilus influenzae in presence of 50 ug/ml thymidine
smiles,measurement,setting,value
COc1ncc([C@H]2c3ccccc3C=NN2C(=O)/C=C/c2cc(Cc3cnc(N)nc3N)cc(OC)c2OC)cn1,MIC,[1],0.25 µg/mL
same,IC50,[2],0.0135 µM
same,MIC,[3],0.125 µg/mL
same,MIC,[4],0.06 µg/mL
same,MIC,[5],2 µg/mL
same,IC50,[6],0.0039 µM
same,IC50,[7],0.0983 µM
same,MIC,[8],1 µg/mL
COc1cc(Cc2cnc(N)nc2N)cc(/C=C/C(=O)N2N=Cc3ccccc3C2c2cnc(N3CCOCC3)nc2)c1OC (stereo unspecified),MIC,[9],> 128 µg/mL
same,MIC,[1],1 µg/mL
same,MIC,[10],≥ 128 µg/mL
same,Activity,[11],Active
same,MIC,[12],> 128 µg/mL
same,MIC,[13],≤ 0.25 µg/mL
same,MIC,[14],1 µg/mL
same,MIC,[15],2 µg/mL
same,IC50,[2],0.124 µM
same,MIC,[16],1 µg/mL
same,Activity,[17],400 mg/kg
same,Activity,[18],< 10%
same,MIC,[3],0.5 µg/mL
same,Activity,[19],77%
same,AUC(0-t) at 7 h,[20],5590 ng·h/mL
same,MIC,[21],64 µg/mL
same,Cmax,[22],990 ng/mL
same,MIC,[23],0.5 µg/mL
same,Activity,[24],< 10%
same,Activity,[25],inactive
same,IC50,[26],12 µM
same,MIC,[4],0.25 µg/mL
same,MIC,[27],≥ 128 µg/mL
same,Activity,[28],< 10%
same,MIC,[5],2 µg/mL
same,MIC,[29],≥ 128 µg/mL
same,MIC,[30],1 µg/mL
same,MIC,[31],≥ 128 µg/mL
same,MIC,[32],> 128 µg/mL
same,MIC,[33],1 µg/mL
same,IC50,[6],0.0122 µM
same,Activity,[34],< 10%
same,MIC,[35],≥ 128 µg/mL
same,ED50,[36],1.6 mg/kg
same,MIC,[37],1 µg/mL
same,MIC,[38],1 µg/mL
same,Activity,[39],< 10%
same,MIC,[40],1 µg/mL
same,IC50,[7],0.154 µM
same,Activity,[41],< 10%
same,Activity,[42],< 10%
same,MIC,[43],< 0.25 µg/mL
same,MIC,[8],2 µg/mL
same,MIC,[44],0.5 µg/mL
same,MIC,[45],2 µg/mL
same,Tmax,[46],6 h
same,MIC,[47],2 µg/mL
same,MIC,[48],0.5 µg/mL
same,MIC,[49],≤ 0.25 µg/mL
same,bioavailability,[50],29%
same,ED50,[51],1.6 mg/kg
same,Activity,[52],< 10%
same,MIC,[53],1 µg/mL
same,MIC,"[53]; Staphylococcus aureus, read-out: MIC",0.5 µg/mL
same,MIC,[54],≥ 128 µg/mL
COc1ncc([C@@H]2c3ccccc3C=NN2C(=O)/C=C/c2cc(Cc3cnc(N)nc3N)cc(OC)c2OC)cn1,MIC,[1],2 µg/mL
same,IC50,[2],1.15 µM
same,MIC,[3],1 µg/mL
same,MIC,[4],0.5 µg/mL
same,MIC,[5],> 8 µg/mL
same,IC50,[6],0.0125 µM
same,IC50,[7],1.33 µM
same,MIC,[8],> 8 µg/mL
